# Measurements reported in patent US20220041606A1, “POSITIVE ALLOSTERIC MODULATORS OF THE MUSCARINIC ACETYLCHOLINE RECEPTOR M1” (Vanderbilt University, priority 2020, published 2022).
# Columns and labels:
# human mAChR M1 [1] = target: T1, human mAChR M1 (Homo sapiens, UniProt P11229); assay: mAChR M1 cell-based functional assay (calcium mobilization), agonist activity upon compound addition; details: CHO-K1 cells expressing hM1; for EC50: compound alone, before acetylcholine addition; for Emax: relative to the maximum for acetylcholine
# T1 construct: host or cells: CHO-K1 cells (ATCC), stably transfected using Lipofectamine2000
# T1 sequence (P11229 1-460): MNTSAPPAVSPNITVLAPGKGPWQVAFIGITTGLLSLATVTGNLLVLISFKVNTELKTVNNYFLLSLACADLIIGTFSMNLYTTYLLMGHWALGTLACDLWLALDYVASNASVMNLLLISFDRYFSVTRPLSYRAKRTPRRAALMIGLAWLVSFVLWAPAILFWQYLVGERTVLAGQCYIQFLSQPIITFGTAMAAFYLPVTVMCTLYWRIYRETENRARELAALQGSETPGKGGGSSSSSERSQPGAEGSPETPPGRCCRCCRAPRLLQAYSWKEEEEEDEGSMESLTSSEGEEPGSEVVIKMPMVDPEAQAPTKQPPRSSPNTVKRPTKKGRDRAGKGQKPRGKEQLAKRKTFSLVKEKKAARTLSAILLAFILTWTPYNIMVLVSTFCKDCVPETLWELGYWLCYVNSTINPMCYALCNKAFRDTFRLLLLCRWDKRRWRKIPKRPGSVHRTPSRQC
# Method in brief: (§1)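 CHO-K1 cells stably expressing hM1, loaded with Fluo-4 AM; calcium flux read on FDSS 6000. Compound (11-point, 1:3 CRC) added at 4 s, EC20 acetylcholine at 144 s, EC80 at 230 s; agonism from response to compound alone, PAM from increase in EC20 response; Emax relative to acetylcholine maximum, four-parameter fit.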
# human mAChR M1 [2] = target: T1, human mAChR M1; assay: mAChR M1 cell-based functional assay (calcium mobilization), PAM activity: increase in the EC20 acetylcholine response; details: CHO-K1 cells expressing hM1; potentiation of EC20 acetylcholine response
# Method in brief: as §1
Compound,EC50 (human mAChR M1 [1]) [µM],Emax (human mAChR M1 [1]) [%],EC50 (human mAChR M1 [2]) [µM],Emax (human mAChR M1 [2]) [%]
"Cc1cn2c(=O)n(Cc3ccc(-c4cnn(C)c4)cc3F)cc(C(=O)N[C@H]3CCOC[C@@H]3O)c2n1 [Compound B23, 6-(2-Fluoro-4-(1-methyl-1H-pyrazol-4-yl)benzyl)-N-((3R,4S)-3-hydroxytetrahydro-2H-pyran-4-yl)-2-methyl-5-oxo-5,6-dihydroimidazo[1,2-c]pyrimidine-8-carboxamide]",> 10,< 5,7.85,39
"Cc1ncc(-c2cc(F)c(Cn3cc(C(=O)N[C@H]4CCOC[C@@H]4O)c4ncccc4c3=O)c(F)c2)s1 [Compound A51, 6-(2,6-difluoro-4-(2-methylthiazol-5-yl)benzyl)-N-((3R,4S)-3-hydroxytetrahydro-2H-pyran-4-yl)-5-oxo-5,6-dihydro-1,6-naphthyridine-8-carboxamide]",> 10,< 5,1.68,75
"Cc1cncc(-c2cc(F)c(Cn3cc(C(=O)N[C@H]4CCC[C@@H]4O)c4ncccc4c3=O)c(F)c2)c1 [Compound A44, 6-(2,6-difluoro-4-(5-methylpyridin-3-yl)benzyl)-N-((1S,2S)-2-hydroxycyclopentyl)-5-oxo-5,6-dihydro-1,6-naphthyridine-8-carboxamide]",> 10,< 5,≥ 10,26
"CC[C@H](C)[C@@H](CO)NC(=O)c1cn(Cc2c(F)cc(-c3cccc4nn(C)cc34)cc2F)c(=O)c2nccnc12 [Compound A76, 6-(2,6-difluoro-4-(2-methyl-2H-indazol-4-yl)benzyl)-N-((2S,3S)-1-hydroxy-3-methylpentan-2-yl)-5-oxo-5,6-dihydropyrido[3,4-b]pyrazine-8-carboxamide]",> 10,< 5,4.33,53
"Cn1nccc1-c1ccc(Cn2cc(C(=O)N[C@H]3CCC[C@@H]3O)c3nccn3c2=O)c(F)c1 [Compound B33, 6-(2-fluoro-4-(1-methyl-1H-pyrazol-5-yl)benzyl)-N-((1S,2S)-2-hydroxycyclopentyl)-5-oxo-5,6-dihydroimidazo[1,2-c]pyrimidine-8-carboxamide]",> 10,< 5,2.23,57
"Cn1cc2c(-c3cc(F)c(Cn4cc(C(=O)NC5CCOCC5)c5nccnc5c4=O)c(F)c3)cccc2n1 [Compound A70, 6-(2,6-difluoro-4-(2-methyl-2H-indazol-4-yl)benzyl)-5-oxo-N-(tetrahydro-2H-pyran-4-yl)-5,6-dihydropyrido[3,4-b]pyrazine-8-carboxamide]",> 10,< 5,5.5,45
"Cn1nccc1-c1cc(F)c(Cn2cc(C(=O)N[C@H]3CCCC[C@@H]3O)c3ncccc3c2=O)c(F)c1 [Compound A48, 6-(2,6-difluoro-4-(1-methyl-1H-pyrazol-5-yl)benzyl)-N-((1S,2S)-2-hydroxycyclohexyl)-5-oxo-5,6-dihydro-1,6-naphthyridine-8-carboxamide]",> 10,< 5,0.66,38
"Cn1cc(-c2ccc(Cn3cc(C(=O)N[C@H]4CCCCC[C@@H]4O)c4ncccc4c3=O)cc2)cn1 [Compound A87, N-((1S,2S)-2-hydroxycycloheptyl)-6-(4-(1-methyl-1H-pyrazol-4-yl)benzyl)-5-oxo-5,6-dihydro-1,6-naphthyridine-8-carboxamide]",> 10,< 5,0.82,44
"Cn1nccc1-c1cc(F)c(Cn2cc(C(=O)N[C@H]3CCOC[C@@H]3O)c3ncccc3c2=O)c(F)c1 [Compound A47, 6-(2,6-difluoro-4-(1-methyl-1H-pyrazol-5-yl)benzyl)-N-((3R,4S)-3-hydroxytetrahydro-2H-pyran-4-yl)-5-oxo-5,6-dihydro-1,6-naphthyridine-8-carboxamide]",> 10,< 5,1.09,57
"O=C(N[C@H]1CCCCC[C@@H]1O)c1cn(Cc2ccc(-n3cccn3)cc2)c(=O)c2nccnc12 [Compound A62, 6-(4-(1H-pyrazol-1-yl)benzyl)-N-((1S,2S)-2-hydroxycycloheptyl)-5-oxo-5,6-dihydropyrido[3,4-b]pyrazine-8-carboxamide]",> 10,< 5,≥ 10,53
"Cn1cc(-c2ccc(Cn3cc(C(=O)N[C@H]4CCCCC[C@@H]4O)c4ncccc4c3=O)c(F)c2)cn1 [Compound A24, 6-(2-fluoro-4-(1-methyl-1H-pyrazol-4-yl)benzyl)-N-((1S,2S)-2-hydroxycycloheptyl)-5-oxo-5,6-dihydro-1,6-naphthyridine-8-carboxamide]",6.12,16,0.35,69
"O=C(N[C@H]1CCC[C@@H]1O)c1cn(Cc2ccc(-n3cccn3)cc2)c(=O)c2cccnc12 [Compound A14, 6-(4-(1H-pyrazol-1-yl)benzyl)-N-((1S,2S)-2-hydroxycyclopentyl)-5-oxo-5,6-dihydro-1,6-naphthyridine-8-carboxamide]",> 10,< 5,7.78,64

# Second part, the molecule after the results:
EC50 (human mAChR M1 [1]) [µM],Emax (human mAChR M1 [1]) [%],EC50 (human mAChR M1 [2]) [µM],Emax (human mAChR M1 [2]) [%],Compound
> 10,< 5,> 10,37,"Cn1ccc(-c2ccc(Cn3cc(C(=O)N[C@H]4CCCC[C@@H]4O)c4sccc4c3=O)c(F)c2)n1 [Compound D27, 5-(2-fluoro-4-(1-methyl-1H-pyrazol-3-yl)benzyl)-N-((1S,2S)-2-hydroxycyclohexyl)-4-oxo-4,5-dihydrothieno[3,2-c]pyridine-7-carboxamide]"
2.27,11,0.28,85,"Cn1cc2c(-c3cc(F)c(Cn4cc(C(=O)N[C@H]5CCOC[C@@H]5O)c5occc5c4=O)c(F)c3)cccc2n1 [Compound D18, 5-(2,6-Difluoro-4-(2-methyl-2H-indazol-4-yl)benzyl)-N-((3R,4S)-3-hydroxytetrahydro-2H-pyran-4-yl)-4-oxo-4,5-dihydrofuro[3,2-c]pyridine-7-carboxamide]"
> 10,< 5,7.98,54,"Cn1cc2c(-c3cc(F)c(Cn4cc(C(=O)N[C@H]5CCCC[C@@H]5O)c5sccc5c4=O)c(F)c3)cccc2n1 [Compound D31, 5-(2,6-difluoro-4-(2-methyl-2H-indazol-4-yl)benzyl)-N-((1S,2S)-2-hydroxycyclohexyl)-4-oxo-4,5-dihydrothieno[3,2-c]pyridine-7-carboxamide]"
> 10,< 5,> 10,34,"O=C(N[C@H]1CCC[C@@H]1O)c1cn(Cc2ccc(-n3cccn3)cc2)c(=O)c2ccoc12 [Compound D4, 5-(4-(1H-pyrazol-1-yl)benzyl)-N-((1S,2S)-2-hydroxycyclopentyl)-4-oxo-4,5-dihydrofuro[3,2-c]pyridine-7-carboxamide]"
> 10,< 5,4.12,64,"Cn1cc2c(-c3cc(F)c(Cn4cc(C(=O)NC5CCOCC5)c5occc5c4=O)c(F)c3)cccc2n1 [Compound D23, 5-(2,6-difluoro-4-(2-methyl-2H-indazol-4-yl)benzyl)-4-oxo-N-(tetrahydro-2H-pyran-4-yl)-4,5-dihydrofuro[3,2-c]pyridine-7-carboxamide]"
> 10,< 5,5.13,32,"Cn1ccc(-c2ccc(Cn3cc(C(=O)N[C@H]4CCC[C@@H]4O)c4occc4c3=O)c(F)c2)n1 [Compound D8, 5-(2-Fluoro-4-(1-methyl-1H-pyrazol-3-yl)benzyl)-N-((1S,2S)-2-hydroxycyclopentyl)-4-oxo-4,5-dihydrofuro[3,2-c]pyridine-7-carboxamide]"
> 10,< 5,0.17,43,"Cn1cnc2c(C(=O)N[C@H]3CCCC[C@@H]3O)cn(Cc3ccc(-n4cccn4)cc3)c(=O)c21 [Compound C6, 5-(4-(1H-pyrazol-1-yl)benzyl)-N-((1S,2S)-2-hydroxycyclohexyl)-3-methyl-4-oxo-4,5-dihydro-3H-imidazo[4,5-c]pyridine-7-carboxamide]"
> 10,< 5,> 10,58,"O=C(N[C@H]1CCCCC[C@@H]1O)c1cn(Cc2ccc(-n3cccn3)cc2)c(=O)c2ccoc12 [Compound D5, 5-(4-(1H-pyrazol-1-yl)benzyl)-N-((1S,2S)-2-hydroxycycloheptyl)-4-oxo-4,5-dihydrofuro[3,2-c]pyridine-7-carboxamide]"
> 10,< 5,4.52,69,"Cn1cc2c(-c3cc(F)c(Cn4cc(C(=O)N[C@H]5CCOC[C@@H]5O)c5sccc5c4=O)c(F)c3)cccc2n1 [Compound D30, 5-(2,6-difluoro-4-(2-methyl-2H-indazol-4-yl)benzyl)-N-((3R,4S)-3-hydroxytetrahydro-2H-pyran-4-yl)-4-oxo-4,5-dihydrothieno[3,2-c]pyridine-7-carboxamide]"
